Assay results from PubChem BioAssay (NCI).
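Exposure lasted 48 hours, with cells grown in 96-well plates and compounds tested at five concentrations. At the TGI there is no net growth.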

Experiments:
Experiment in all cases: NCI tumour cell line growth inhibition, 48 h
DMS 114 small cell lung = tested on: DMS 114 small cell lung
LXFL 529 NSCLC = tested on: LXFL 529 NSCLC
XF 498 CNS = tested on: XF 498 CNS
P388 leukemia = tested on: P388 leukemia
SN12K1 renal = tested on: SN12K1 renal
P388/ADR leukemia = tested on: P388/ADR leukemia
RXF-631 renal = tested on: RXF-631 renal

Nc1ccc(C(=O)NN2C(=O)C(Cl)C2c2ccccc2)cc1 (stereo not drawn)
TGI (DMS 114 small cell lung): > 100 µM
TGI (LXFL 529 NSCLC): > 100 µM
TGI (XF 498 CNS): > 100 µM

COc1cc(/C=C(/C#N)C(N)=O)ccc1O
TGI (DMS 114 small cell lung): > 100 µM
TGI (P388 leukemia): > 100 µM
TGI (SN12K1 renal): > 100 µM
TGI (P388/ADR leukemia): > 100 µM
TGI (XF 498 CNS): > 100 µM

CCCc1ccc(NCc2cc(OC)c(OC)c(OC)c2)cc1
TGI (DMS 114 small cell lung): 29.8 µM
TGI (LXFL 529 NSCLC): 40.5 µM
TGI (XF 498 CNS): 52.8 µM

CCOC(=O)CSc1nnc(C(Sc2nc(-c3ccccc3)c(-c3ccccc3)[nH]2)C(C)C)n1-c1ccccc1 (stereo not drawn)
TGI (DMS 114 small cell lung): > 10 µM
TGI (LXFL 529 NSCLC): > 10 µM

N#C/C(=C\c1c[nH]c2ccccc12)C(=O)c1ccc(O)c(O)c1
TGI (LXFL 529 NSCLC): > 100 µM
TGI (XF 498 CNS): > 100 µM

Cc1cc(NCCCCCCCNc2cc(C)nc3cc([N+](=O)[O-])ccc23)c2ccc([N+](=O)[O-])cc2n1
TGI (DMS 114 small cell lung): 3.28 µM
TGI (LXFL 529 NSCLC): 3.14 µM
TGI (RXF-631 renal): > 45.9 µM
TGI (XF 498 CNS): > 48.1 µM

CC(NC(C)(C)C)C(=O)c1cccc(Cl)c1 (stereo not drawn)
TGI (DMS 114 small cell lung): > 100 µM
TGI (LXFL 529 NSCLC): > 100 µM
TGI (RXF-631 renal): > 100 µM
TGI (XF 498 CNS): > 100 µM

COc1cc2c(cc1OC)C1(c3ccc(Cl)cc3)ON=C(c3ccccc3)N1CS2 (stereo not drawn)
TGI (DMS 114 small cell lung): > 100 µM
TGI (LXFL 529 NSCLC): > 100 µM
TGI (RXF-631 renal): > 100 µM

[N-]=[N+]=C1C(=O)C2CC3CC(C2)CC1C3
TGI (DMS 114 small cell lung): > 100 µM
TGI (LXFL 529 NSCLC): > 100 µM
TGI (XF 498 CNS): > 100 µM

COC(=O)CC1NC(=O)C1C1(C)OCCO1 (stereo not drawn)
TGI (DMS 114 small cell lung): > 100 µM
TGI (LXFL 529 NSCLC): > 100 µM
TGI (XF 498 CNS): > 100 µM

Cc1ccc(CC(C)N)cc1 (stereo not drawn)
TGI (DMS 114 small cell lung): > 100 µM
TGI (LXFL 529 NSCLC): > 100 µM
TGI (RXF-631 renal): > 100 µM

COc1cc(-c2cc(-c3cc([N+](=O)[O-])c(/C=N/NC(=O)c4ccncc4)o3)ccc2OC)ccc1C
TGI (LXFL 529 NSCLC): > 100 µM
TGI (RXF-631 renal): > 100 µM
TGI (XF 498 CNS): > 100 µM
